Measurements: US20250011299A1, “PYRIDAZINYL AMINO DERIVATIVES AS ALK5 INHIBITORS” (CHIESI FARMACEUTICI S.P.A., priority 2021, published 2025)

Each molecule was assayed against T1, human ALK5 (Homo sapiens, UniProt P36897) (assay: ADP-GLO Kinases assay of ALK5 enzymatic activity). Conditions: purified recombinant human ALK5, TGFβ1 peptide substrate, pIC50 converted to pKi by Cheng-Prusoff, high ATP protocol (15 μM) for very potent compounds, 25° C.
T1 construct: human ALK5 (recombinant TGF β1 N-term GST-tagged, 80-end); GST (N); purchased
T1 sequence (P36897 80-503 limits assumed): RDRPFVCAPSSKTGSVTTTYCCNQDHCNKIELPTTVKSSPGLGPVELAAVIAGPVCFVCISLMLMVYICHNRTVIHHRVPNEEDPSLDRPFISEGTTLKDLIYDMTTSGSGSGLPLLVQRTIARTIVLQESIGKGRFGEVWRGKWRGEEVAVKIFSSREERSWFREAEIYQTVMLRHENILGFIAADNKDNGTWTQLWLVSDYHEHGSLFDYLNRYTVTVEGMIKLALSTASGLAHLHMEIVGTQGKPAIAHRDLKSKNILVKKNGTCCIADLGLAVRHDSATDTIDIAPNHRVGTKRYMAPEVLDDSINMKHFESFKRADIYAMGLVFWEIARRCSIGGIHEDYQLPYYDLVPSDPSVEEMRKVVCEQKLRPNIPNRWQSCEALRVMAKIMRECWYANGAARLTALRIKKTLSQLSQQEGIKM
Assay type: biochemical
Outline: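 Purified ALK5 preincubated 15 min with compound, then reacted with substrate and ATP; ADP formed read by ADP-Glo luminescence after 120 min or 60 min reaction, all steps at 25° C. 11-point concentration-response; pIC50 converted to pKi via Cheng-Prusoff.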

Compound | Ki [nM]
O=C(Nc1cc(Nc2cc(-c3cc(Cl)ccc3F)nnc2SCCO)ccn1)C1CC(N2CCC(F)(F)C(CO)C2)C1 (racemic) [Example 170, N-(4-{[6-(5-chloro-2-fluorophenyl)-3-[(2-hydroxyethyl)sulfanyl]pyridazin-4-yl]amino}pyridin-2-yl)-3-[4,4-difluoro-3-(hydroxymethyl)piperidin-1-yl]cyclobutane-1-carboxamide] | ≤ 0.1
CN1C[C@@H]2C[C@H]1CN2[C@H]1C[C@@H](C(=O)Nc2cc(Nc3cc(-c4cc(Cl)ccc4F)nnc3SCCO)ccn2)C1 [Example 87, Cis N-(4-{[6-(5-chloro-2-fluorophenyl)-3-[(2-hydroxyethyl)sulfanyl]pyridazin-4-yl]amino}pyridin-2-yl)-3-[(1S,4S)-5-methyl-2,5-diazabicyclo[2.2.1]heptan-2-yl]cyclobutane-1-carboxamide] | ≤ 0.1
C[S+]([O-])CCCOc1nnc(-c2cc(Cl)ccc2F)cc1Nc1ccnc(N)c1 (stereo not shown) [Example 57, N4-[6-(5-chloro-2-fluorophenyl)-3-(3-methanesulfinylpropoxy)pyridazin-4-yl]pyridine-2,4-diamine] | 0.398 to 3.16
CN1CCN(CCOc2nnc(-c3cc(Cl)ccc3F)cc2Nc2ccnc(NC(=O)C3CC3)c2)CC1 [Example 36, N-(4-{[6-(5-chloro-2-fluorophenyl)-3-[2-(4-methylpiperazin-1-yl)ethoxy]pyridazin-4-yl]amino}pyridin-2-yl)cyclopropanecarboxamide] | ≤ 0.1
O=C(Nc1cc(Nc2cc(-c3cc(Cl)ccc3F)nnc2SCCO)ccn1)[C@H]1C[C@@H](N2CCSCC2)C1 [Example 89, Cis N-(4-{[6-(5-chloro-2-fluorophenyl)-3-[(2-hydroxyethyl)sulfanyl]pyridazin-4-yl]amino}pyridin-2-yl)-3-(thiomorpholin-4-yl)cyclobutane-1-carboxamide] | ≤ 0.1

Results, then the molecule that gave them:

Ki [nM] | Compound
0.126 to 0.316 | CN1CCN(CCC(=O)Nc2cc(Nc3cc(-c4cc(Cl)ccc4F)nnc3SC3(C)CCOC3=O)ccn2)CC1 (racemic) [Example 192, N-(4-{[6-(5-chloro-2-fluorophenyl)-3-[(3-methyl-2-oxooxolan-3-yl)sulfanyl]pyridazin-4-yl]amino}pyridin-2-yl)-3-(4-methylpiperazin-1-yl)propanamide]
0.126 to 0.316 | CN1CCN(CCCC(=O)Nc2cc(Nc3cc(-c4cc(Cl)ccc4F)nnc3SCCO)ccn2)CC1 [Example 23, N-(4-{[6-(5-chloro-2-fluorophenyl)-3-[(2-hydroxyethyl)sulfanyl]pyridazin-4-yl]amino}pyridin-2-yl)-4-(4-methylpiperazin-1-yl)butanamide]
